Results reported in patent US20260130879A1 (IMMUNIC AG, priority 2023, published 2026).
“Also recorded” adds a separate entry of the source. Structures can show the parent of a compound that is named as a salt.

What was measured:
[1] = test system: NFL; conditions: EXPAND, 12-month; cited from earlier work
[2] = test system: tyrosine hydroxylase (TH); experiment: Nurr1 regulated gene expression of TH in T98G cells (qPCR); format: cell-based; conditions: 16 h
Procedure: (§1) . After 16 h of incubation the medium was removed, cells were washed with phosphate buffered saline (PBS) and after full aspiration of residual liquids immediately frozen at −80° C., until further procession. Total RNA was isolated using E.Z.N.A.® Total RNA Kit I (Omega Bio-tek. Norcross. USA) following the manufacturer's instructions. RNA concentration and purity was assessed using a NanoDrop™ One UV/VIS spectrophotometer (Thermo Fisher Scientific. Waltham. USA) at 260/280 nm. Right before reverse transcription (RT), RNA was linearized at a concentration of 133 ng/μL at 65° C., for 10 min and then immediately incubated on ice for at least 1 min. Reverse transcription was performed using 2 μg total RNA, 20 U Recombinant RNasin® Ribonuclease Inhibitor (Promega, Mannheim, Germany), 100 U SuperScript IV Reverse Transcriptase including 5× First Strand Buffer and 0.1 M dithiothreitol (Thermo Fisher Scientific, Waltham, USA), 3.75 ng linear acrylamide. […] Quantitative polymerase chain reaction (qPCR) was conducted using an Applied Biosystems™ QuantStudio 1 (Waltham, USA) and a SYBR green based detection method. […] PCR product specificity was evaluated using a melting curve analysis ranging from 65 to 95° C. […]

[3] = test system: vesicular amino acid transporter 2 (VMAT2); experiment: Nurr1 regulated gene expression of VMAT2 in T98G cells (qPCR); format: cell-based; conditions: 16 h
Procedure: as §1

[4] = test system: BDNF; experiment: Induction of BDNF in LPS-stimulated human PBMCs (ELISA); format: cell-based; conditions: 3 μM, supernatant 14 h
[5] = test system: RRMS patients; conditions: 12 weeks or 24 weeks; cited from earlier work
[6] = test system: brain lesions; conditions: animal model of RRMS; cited from earlier work
[7] = target: human Nurr1 (Homo sapiens, UniProt P43354); experiment: Hybrid Gal4-Nurr1 reporter gene assay in HEK293T cells
Procedure: Nurr1 modulation was determined in a Gal4 hybrid reporter gene assays in HEK293T cells (German Collection of Microorganisms and Cell Culture GmbH, DSMZ) using pFR-Luc (Stratagene, La Jolla, CA, USA; reporter), pRL-SV40 (Promega, Madison, WI, USA: internal control) and pFA-CMV-hNurr1-LBD, coding for the hinge region and ligand binding domain of the canonical isoform of human Nurr1. Cells were cultured in Dulbecco's modified Eagle's medium (DMEM), high glucose supplemented with 10% fetal calf serum (FCS), sodium pyruvate (1 mM), penicillin (100 U/mL), and streptomycin (100 μg/mL) at 37° C., and 5% CO2 and seeded in 96-well plates (3×10+ cells/well). […] Firefly luminescence was divided by Renilla luminescence and multiplied by 1000 resulting in relative light units (RLU) to normalize for transfection efficiency and cell growth. Fold activation was obtained by dividing the mean RLU of test compound by the mean RLU of the untreated control. All samples were tested in at least three biologically independent experiments in duplicates. For dose-response curve fitting and calculation of EC50 values, the equation “[Agonist] versus response (three parameters)” was used in GraphPad Prism (version 7.00, GraphPad Software, La Jolla, CA, USA).
Similarly as described in Part A, the Nurr1 modulation was determined in a Gal4 hybrid reporter gene assay at a fixed concentration of 3 μM.

[8] = target: T1, hDHODH (Homo sapiens, UniProt Q02127); experiment: in vitro inhibition of hDHODH; format: biochemical
T1 construct: measured using an N-terminally truncated recombinant hDHODH enzyme
Procedure: The in vitro inhibition of hDHODH was measured using an N-terminally truncated recombinant hDHODH enzyme. Briefly, the hDHODH concentration was adjusted in a way that an average slope of approximately 0.2 AU/min served as the positive control (e.g., without inhibitor). The assay mixture contained 60 μM 2,6-dichloroindophenol, 50 μM decylubiquinone and 100 μM dihydroorotate. The hDHODH enzyme with or without at least six different concentrations of the compounds was added and measurements were performed in 50 mM TrisHCl, 150 mM KCl and 0.1% Triton X-100 at pH 8.0 and at 30° C. The reaction was started by adding dihydroorotate and measuring the absorption at 600 nm for 2 min. For the determination of the IC50 values, each data point was recorded in triplicate.

[9] = test system: SH-SY5Y; experiment: Apoptosis assay in SH-SY5Y cells (TNFα and CHX); format: cell-based, human; conditions: pretreated 1 h, TNFα 50 ng/ml and CHX 20 μg/mL for 6 hours
Procedure: (§2) Cell viability was assessed by flow cytometry after staining the cells with Annexin V and a live/dead dye. Alive cells are defined as […].

[10] = test system: N2A; experiment: Apoptosis assay in N2A cells (TNFα and CHX); format: cell-based, murine; conditions: pretreated 1 h, TNFα 50 ng/ml and CHX 20 μg/mL for 6 hours
Procedure: as §2

[11] = test system: neurofilament light polypeptide (NFL); experiment: Serum neurofilament (NFL) in Phase 2 study in relapsing-remitting multiple sclerosis, patients with no relapses; format: in vivo, human; conditions: after 24 weeks, RRMS patients with no relapses
Procedure: […]. The study was carried out in accordance with current ICH E6 (Good Clinical Practice) guidelines and the EMA Reflection paper for laboratories that perform the analysis or evaluation of clinical trial samples (EMA/INS/GCP/532137/2010, 28 Feb. 2012). The sample analysis was performed on a Meso QuickPlex SQ 120 analyzer by an ECLIA technique using a validated method.
In order to confirm an effect of IMU-838 on the plasma levels of NFL the subgroup of patients with no relapses was investigated

[12] = test system: Nurr1 target genes; experiment: Microarray gene expression in stimulated human PBMCs; format: cell-based; conditions: anti-CD3/anti-CD28 stimulated human PBMCs, 20 h
Procedure: Human PBMC isolation was performed similarly as described above. […] Four biological replicates were used per condition. Cells were detached from the cell culture plates by using MACS buffer, were washed with PBS and then resuspended in RLT buffer for subsequent RNA isolation with RNAeasy Mini Kit (Quiagen). 100 ng total RNA per sample were introduced into an RT-IVT reaction. Prior to RT-IVT, the total RNA samples were spiked with in-vitro synthesized polyadenylated transcripts (One-Color RNA Spike-In Mix, Agilent Technologies), which serves as an internal labeling control for linearity, sensitivity and accuracy. The spiked total RNA was reverse transcribed into cDNA and then converted into labeled cRNA by in vitro transcription (Low Input Quick-Amp Labeling Kit One-Color, Agilent Technologies) incorporating Cyanine-3-CTP. All steps were carried out according to the manufacturer's instructions. […] Afterwards, microarrays were washed with increasing stringency using Gene Expression Wash Buffers (Agilent Technologies) followed by drying with acetonitrile (SIGMA). […] Differential gene expression was identified by applying appropriate biostatistics to the data set. GeneSpring GX11 analysis software was used to normalize and analyze the raw data. […] The induced and repressed genes were further characterized for involvement in functional categories (biological processes, molecular functions, cellular components, protein classes and pathways) based on the PANTHER database.

Sequence of human Nurr1 (P43354 360-595 limits assumed): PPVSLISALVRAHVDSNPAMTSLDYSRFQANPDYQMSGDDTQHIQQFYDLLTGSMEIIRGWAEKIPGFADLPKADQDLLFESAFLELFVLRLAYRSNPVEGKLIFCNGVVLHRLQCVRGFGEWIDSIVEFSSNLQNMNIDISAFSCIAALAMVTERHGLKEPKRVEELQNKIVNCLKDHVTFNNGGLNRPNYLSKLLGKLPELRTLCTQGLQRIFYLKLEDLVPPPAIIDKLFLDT
T1 sequence (Q02127 29-395): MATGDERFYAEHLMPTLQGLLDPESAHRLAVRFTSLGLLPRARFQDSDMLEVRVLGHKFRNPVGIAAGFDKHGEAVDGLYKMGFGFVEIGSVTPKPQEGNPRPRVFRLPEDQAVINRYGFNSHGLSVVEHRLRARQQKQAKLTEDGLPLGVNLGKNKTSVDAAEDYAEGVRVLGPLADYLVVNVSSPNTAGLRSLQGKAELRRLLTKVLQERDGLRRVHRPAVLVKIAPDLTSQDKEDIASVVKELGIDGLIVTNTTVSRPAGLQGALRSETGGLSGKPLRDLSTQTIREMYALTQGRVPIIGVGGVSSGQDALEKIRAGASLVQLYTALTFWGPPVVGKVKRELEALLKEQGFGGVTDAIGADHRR

Compound	EC50 [7]	Nurr1 agonism max. fold activation (range) [7]	IC50 [8]	also measured
CCc1cc(/C(C)=N/OCc2ccc(C3CCCCC3)c(C(F)(F)F)c2)ccc1CN1CC(C(=O)O)C1 [siponimod]				effect on neurofilament, non-active SPMS [1]: little or no effect on neurofilament
COc1cccc(-c2ccc(NC(=O)C3=C(C(=O)O)CCC3)c(F)c2)c1 [Example 1, vidofludimus]				gene expression on tyrosine hydroxylase (TH) [2]: dose-dependent gene expression; gene expression on vesicular amino acid transporter 2 (VMAT2) [3]: dose-dependent gene expression
C/C(O)=C(\C#N)C(=O)Nc1ccc(C(F)(F)F)cc1 [teriflunomide, reference compound]				BDNF production [4]: no effect
COc1cccc(-c2ccc(NC(=O)C3=C(C(=O)O)CCC3)c(F)c2)c1 [vidofludimus calcium, vidofludimus calcium salt dihydrate]				rate of confirmed disability worsening over time vs placebo [5]: lower rate of confirmed disability worsening; unique active brain lesions vs placebo [5]: significantly fewer unique active brain lesions; reduction in brain lesions vs control treatment [6]: greater reduction in brain lesions
[2H]C([2H])([2H])Oc1cccc(-c2ccc(NC(=O)c3cscc3C(=O)O)cc2)c1 [6/50]	< 100 nM	++ (++: ≥2-fold to <3-fold)	100 to 1000 nM	
C#CCOc1cccc(-c2ccc(NC(=O)C3=C(C(=O)O)CCC3)c(F)c2)c1 [Example 3, 2-((3-Fluoro-3′-(prop-2-yn-1-yloxy)-[1,1′-biphenyl]-4-yl)carbamoyl)cyclopent-1-ene-1-carboxylic acid]				induction of apoptosis, SH-SY5Y [9]: induction of apoptosis was reduced; gene expression on tyrosine hydroxylase (TH) [2]: dose-dependent gene expression; induction of apoptosis, N2A [10]: induction of apoptosis was reduced; gene expression on vesicular amino acid transporter 2 (VMAT2) [3]: dose-dependent activation; also recorded: dose-dependent gene expression
[2H]C([2H])([2H])Oc1cccc(-c2c(F)c(F)c(NC(=O)c3ccsc3C(=O)NCC)c(F)c2F)c1 [6/15]	100 to 1000 nM	+ (+: ≥1.3-fold to <2-fold)	> 10000 nM	
[2H]C([2H])([2H])Oc1cccc(-c2c(F)c(F)c(NC(=O)c3ccsc3C(=O)NCC#N)c(F)c2F)c1 [6/39]	1000 to 10000 nM	++ (++: ≥2-fold to <3-fold)	100 to 1000 nM	
C#CCOc1cccc(-c2ccc(NC(=O)c3cscc3C(=O)O)cc2)c1 [6/51]	100 to 1000 nM	+++ (+++: ≥3-fold)	1000 to 10000 nM	
COc1cccc(-c2ccc(NC(=O)C3=C(C(=O)O)CCC3)c(F)c2)c1 [IMU-838, vidofludimus calcium]				BDNF production [4]: BDNF is produced; mean change of NFL (reduction) [11]: 18%; Upregulation A2M [12]: 1.6; Upregulation BHLHE41 [12]: 1.5; Upregulation CFB [12]: 2.4; Upregulation HSD11B1 [12]: 2.5; Upregulation LTA [12]: 2.0; Upregulation MARCO [12]: 2.6; Upregulation NCAM [12]: 1.6
[2H]C([2H])([2H])Oc1cccc(-c2c(F)c(F)c(NC(=O)c3ccccc3C(=O)O)c(F)c2F)c1 [6/20]	< 100 nM		< 100 nM	
[2H]C([2H])([2H])Oc1cccc(-c2c(F)c(F)c(NC(=O)c3ccsc3C(=O)NCCO)c(F)c2F)c1 [6/40]	1000 to 10000 nM	+ (+: ≥1.3-fold to <2-fold)	> 10000 nM	
C#CCOc1cccc(-c2ccc(NC(=O)c3cscc3C(=O)NCC)c(F)c2)c1 [6/58]	1000 to 10000 nM	+ (+: ≥1.3-fold to <2-fold)	> 10000 nM	
[2H]C([2H])([2H])Oc1cccc(C23CCC(NC(=O)C4=C(C(=O)O)CCC4)(CC2)CC3)c1 [reference compound]	> 10000 nM		> 50000 nM	
